Experimental data taken from patent US20210277015A1, “OGA INHIBITOR COMPOUNDS” (Janssen Pharmaceutica NV, priority 2018, published 2021).
Where a name gives a salt, the structure may show the parent alone.

Legend:
OGA = molecular target: T1, OGA (Homo sapiens, UniProt O60502); test: OGA cellular assay (ICC detection of O-GlcNAcylated proteins in HEK293 cells inducible for P301L mutant human Tau); format: cell-based; conditions: for Emax: HEK293, HEK293 cells inducible for P301L mutant human Tau; for EC50: read-out: Cellular hOGA, pEC50 (converted)
T1 construct: endogenous in cells; host or cells: HEK293 cells inducible for P301L mutant human Tau (isoform 2N4R)
T1 sequence (O60502 1-916): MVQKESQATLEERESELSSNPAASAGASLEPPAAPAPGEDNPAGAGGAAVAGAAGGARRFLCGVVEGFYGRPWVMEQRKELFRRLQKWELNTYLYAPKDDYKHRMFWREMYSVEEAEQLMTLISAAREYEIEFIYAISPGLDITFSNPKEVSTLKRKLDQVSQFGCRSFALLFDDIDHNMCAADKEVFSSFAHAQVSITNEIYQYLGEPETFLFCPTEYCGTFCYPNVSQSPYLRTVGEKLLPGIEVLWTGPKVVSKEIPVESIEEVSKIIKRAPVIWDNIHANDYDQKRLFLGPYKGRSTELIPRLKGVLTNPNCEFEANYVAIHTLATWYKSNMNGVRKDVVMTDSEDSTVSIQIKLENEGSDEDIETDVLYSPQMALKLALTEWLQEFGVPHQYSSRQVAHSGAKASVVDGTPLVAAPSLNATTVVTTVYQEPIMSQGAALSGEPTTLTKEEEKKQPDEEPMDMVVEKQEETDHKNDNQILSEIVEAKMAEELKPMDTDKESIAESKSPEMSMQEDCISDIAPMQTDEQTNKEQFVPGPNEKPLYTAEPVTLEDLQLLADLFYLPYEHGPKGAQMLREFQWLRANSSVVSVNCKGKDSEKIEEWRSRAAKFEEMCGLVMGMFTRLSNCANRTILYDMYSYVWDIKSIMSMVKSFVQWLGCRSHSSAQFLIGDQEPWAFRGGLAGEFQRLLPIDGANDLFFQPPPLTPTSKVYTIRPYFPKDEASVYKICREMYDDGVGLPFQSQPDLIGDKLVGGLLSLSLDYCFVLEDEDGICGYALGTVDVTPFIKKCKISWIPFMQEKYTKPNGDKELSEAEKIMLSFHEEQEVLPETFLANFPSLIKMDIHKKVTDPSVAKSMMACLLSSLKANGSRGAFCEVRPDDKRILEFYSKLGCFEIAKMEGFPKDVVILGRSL
Outline: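 HEK293 cells inducible for P301L human Tau (2N4R), in low-glucose medium, treated 6 h with compounds at 0.2% DMSO. After PFA fixation, O-GlcNAcylated proteins immunostained (CTD110.6), intensity imaged at 488 nm, Hoechst nuclei counted for toxicity. IC50 via non-linear regression; Thiamet G 200 uM as maximum.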

[1] = molecular target: T2, recombinant human Meningioma Expressed Antigen 5 (MGEA5), also referred to as O-GlcNAcase (OGA) (Homo sapiens, UniProt O60502); test: OGA biochemical assay (inhibition of FM-GlcNAc hydrolysis, fluorescence); conditions: FM-GlcNAc substrate; for IC50: 6 h at room temperature, read-out: Enzymatic hOGA, pIC50 (converted); for Emax: read-out: Enzymatic Emax (%)
T2 construct: Full length OGA enzyme was purchased at OriGene (cat #TP322411); purchased OriGene TP322411
T2 sequence (O60502 1-916): T1 sequence (O60502 1-916)
Outline: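 Full-length human OGA (2 nM) pre-incubated 60 min at room temperature with compound, then FM-GlcNAc (100 µM final) added in citrate/phosphate buffer pH 7.2 with 0.005% Tween-20; 6 h at room temperature, stopped with carbonate pH 11.0. Fluorescein read at 485/538 nm; IC50 and Hill coefficient from curve fit.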

[2] = HEK293 cells inducible for P301L mutant human Tau, 6 hours incubation, ICC O-GlcNAcylation
[3] = maximum defined by Thiamet G at 200 uM

SMILES	melting point	Cellular hOGA; pEC50 (OGA; [2])	Cellular Emax (%) (OGA; HEK293 cells inducible for P301L mutant human Tau, maximum defined by Thiamet G at 200 uM)	IC50 [1]	Enzymatic Emax (%) ([1]; maximal effect)	Emax (OGA; [3])	EC50 (OGA; [2])	Emax ([1]; maximal effect)
Cc1cc(OC[C@]2(C)CCN([C@H](C)c3ccc4c(n3)OCCO4)C2)cc(C)n1 (single isomer, unassigned) [Product 103]	–	<6	−5%	> 10000 nM	29%	–	–	–
Cc1cc(OC[C@@H]2CCN(C(C)c3nc4c(cc3F)OCCO4)C2)cc(C)n1 (some centres unmarked) [Product 50]	–	–	–	50.1 nM	–	58%	631 nM	100%
Cc1cc(C[C@H]2CCN(C(C)c3cnc4c(c3)OCCN4)C2)cc(C)n1 (mixture of isomers) [Product 80]	–	–	–	39.8 nM	–	71%	398 nM	101%
Cc1cc(C[C@@H]2CCN(C(C)c3nc4c(cc3F)OCCO4)C2)cc(C)n1 (mixture of isomers) [Product 79]	–	–	–	7.94 nM	–	85%	100 nM	98%

The remaining lines, values ahead:

melting point	Cellular hOGA; pEC50 (OGA; [2])	Cellular Emax (%) (OGA; HEK293 cells inducible for P301L mutant human Tau, maximum defined by Thiamet G at 200 uM)	IC50 [1]	Enzymatic Emax (%) ([1]; maximal effect)	Emax (OGA; [3])	EC50 (OGA; [2])	Emax ([1]; maximal effect)	SMILES
297.5 °C	–	–	–	–	–	–	–	Cc1cc(C[C@H]2CCN(C(C)c3ccc4c(c3)OCCN4C)C2)cc(C)n1 (some centres unmarked) (as salt: HCl) [Product 1]
–	–	–	5.01 nM	–	89%	31.6 nM	102%	COc1cc(C[C@H]2CCN(C(C)c3nc4c(cc3F)CCO4)C2)cc(C)n1 (mixture of isomers) [Product 83]
–	–	–	–	–	-7%	> 1000 nM	49%	COc1cc(C[C@@H]2CN([C@H](C)c3ccc4c(n3)OCCO4)C[C@H]2C)cc(C)n1 (stereo in doubt) [Product 122]
–	–	–	126 nM	–	47%	~1000 nM	100%	COc1cc(C[C@H]2CN([C@@H](C)c3ccc4c(n3)OCCO4)C[C@@H]2C)cc(C)n1 (stereo in doubt) [Product 123]
–	–	–	2.51 nM	–	77%	20 nM	101%	Cc1cc(O[C@@H]2CCN(C(C)c3nc4c(cc3F)CCO4)C2)cc(C)n1 (some centres unmarked) [Product 17]
